Experimental data taken from patent publication US6878697B2, “Phenylamino-pyrimidines and uses thereof” (Ariad Pharmaceuticals, Inc., priority 2001, dated 2005).

Assay: Hydroxyapatite assay (hydroxyapatite adsorption chromatography)
Format: physicochemical
Conditions: corrected retention K=(retention time-void time)/void on TSK-Gel HA 1000 HPLC column; linear gradient 10 mM to 500 mM sodium phosphate, 0.15 N NaCl, pH 6.8
Procedure: Hydroxyapatite is the principal mineral component of bone. Hydroxyapatite adsorption chromatography is used as an assay to evaluate the bone-targeting potential of both individual bone-targeting moieties (“monomers”) and of pharmaceuticals incorporating bone-targeting groups.
Method: The rentention time of a test compound is measured using a linear gradient from 10 mM sodium phosphate, 0.15 N NaCl, pH=6.8 to 500 mM sodium phosphate, 0.15 N NaCl, […] on a TSK-Gel HA 1000 high pressure liquid chromatography column (7.5 mm×75 mm). The rentention time of the compound is expressed in terms of K=(retention time-void time)/void. This K value is corrected using two reference compounds to correct from inter-column and inter-system variation to obtain a K′ value.
Reference Compounds: K′ values were determined for known bone targeted compounds, the bisphosphonate, alendronate and tetracycline.

- K′ value: 3.7
SMILES: NCCCC(O)(P(=O)(O)O)P(=O)(O)O [Alendronate, alendronate]
